Tested on: CREF/RasV12
Test: Apoptosis by flow cytometry (cells with hypodiploid DNA content) in Ras-transformed fibroblasts
Assay type: cell-based, rat

C[C@@H]1C[C@@H]([C@H](O)CC2CC(=O)NC(=O)C2)C(=O)[C@@H](C)C1 [cycloheximide]
lovastatin-induced apoptosis in the presence of translational inhibitors: blocked apoptosis

CC[C@H](C)C(=O)O[C@H]1C[C@@H](C)C=C2C=C[C@H](C)[C@H](CC[C@@H]3C[C@@H](O)CC(=O)O3)[C@H]21 [lovastatin]
apoptosis observed in the presence of lovastatin alone (5 μM lovastatin, 24 h): 2 to 8%

Reference: patent publication US20030144190A1, “Method of modulating and antiapoptotic and antiapoptotic pathways in cells” (priority 2003, published 2003)
